One assay deals with T1, AS fibers (Homo sapiens, UniProt P37840).
T1 construct: made in house; host or cells: E. coli BL21
Nature of the assay: Cyclic voltammetry with gold biosensors modified with Doxy-5. The assay is classed as binding. The procedure:
A comparative study for different crosslinking agents for the immobilization of Doxy-5 on gold conductive surfaces was performed. 3-mercaptopropionic acid (MPA), which is able to form self-assembled monolayers (SAM) on the substrate thus facilitating its functionalization, was used. Gold was chosen because it is inert for the molecule of interest. Additionally, the use of other agents such as 1-ethyl-3-(3-dimethylaminopropyl) carbodiimide hydrochloride (EDC) and N-hydroxysuccinimide (NHS), either for generating or activating present moieties, is necessary for the formation of covalent bonds with Doxy-5. Concentrations and incubation times were optimized in each modification stage of the gold surface.
Cyclic voltammetry (CV) measurements were first carried out to characterize each of the immobilization stages on a gold substrate. Said measurements were carried out in a cell with tripolar configuration using a platinum electrode as counter electrode, a silver/silver chloride reference electrode, and the modified gold electrodes as working electrodes. The electrolyte [Fe(CN)6]K4, containing the Fe^3+/Fe^2+ redox pair, was used in every characterization assay. […] CV and EIS measurements were also performed in each immobilization stage using phosphate buffer (PBS) at pH 7.4 (FIG. 1). […]

Another assay addresses T2, fibrillar AS (Homo sapiens, UniProt P37840).
T2 construct: made in house; host or cells: E. coli BL21
Nature of the assay: Sandwich immunoassay, Doxy-5 adsorbed on polystyrene microplates. The assay is classed as binding. The procedure:
The design is based on an immunoassay with a conventional sandwich system involving the capture of fibrillar species of AS by Doxy-5, followed by detection with two antibodies: an anti-human AS antibody, and an antibody conjugated to a peroxidase. Briefly, the compound of formula (II) is incubated in polystyrene microplates wherein it is adsorbed. After several rinses, to eliminate any non-adsorbed molecules, the system is incubated with a primary anti-human AS rabbit antibody. After rinsing, the system is then incubated with a secondary anti-rabbit antibody conjugated to peroxidase. The conjugated antibody reacts specifically with the primary antibodies which are bound to the immunocaptured AS. […] After incubating, a blue color develops, whose intensity depends on the concentration and the affinity of Doxy-5 to the AS species. The enzymatic reaction is stopped by the addition of sulfuric acid, which produces a color shift towards yellow which is spectrometrically quantifiable at 450 nm.
(§1) The 96-well polystyrene plate was sensitized by incubation overnight a 4° C. and protected from light with 20 μg/mL of the compound of formula (II) in 20 mM sodium acetate pH 5 (50 μL/well). The plate was rinsed with PBST (PBS 10 mM pH 7.4+Tween-80 0.01%) and blocked with 150 μL/well of a 0.1% lysozyme solution in PBS 10 mM pH 7.4 during 1 h at 37° C. After rinsing, 50 μL of the samples with the analytes of interest prepared in 10 mM PBS pH 7.4 were added to each well, and the plate was incubated at 37° C. for 2 h. […] Immediately thereafter, the developed absorbance is measured with a TECAN Spark microplate reader.
The focus of the immunoassay takes advantage of the generation of a colored compound by action of the peroxidase on the substrate (TMB), which is proportional to the concentration of the AS analytes captured by Doxy-5. The absorbance readings at 450 nm were acquired with a TECAN Spark microplate reader. […]

The subject of another assay is Tau aggregates (PFF). Nature of the assay: Immunoassay, Doxy-5 bound to BSA through glutaraldehyde on polystyrene microplate. The following applies: Taum 100 ng/ml, PFF 1/10000 dilution; Doxy-5 40 μg/ml; FIG. 6. The assay is classed as binding. The procedure: The sensitization of the wells was carried out as follows: first, the binding sites of the microplate were blocked with albumin. Afterwards, compound of formula (II) was covalently linked to albumin by using glutaraldehyde as the linker.
For this purpose, a 96-well polystyrene microplate was incubated with 150 μL/well of 1% bovine serum albumin (BSA) overnight at 4° C. in a humid chamber. Then, after three cycles of washing with PBST, 50 μL/well of glutaraldehyde at different concentrations (0.1%, 0.5% and 1%) were added to the wells and the plate was kept during specified times (either 10 minutes for every concentration, or 5 minutes for 0.5% and 1%) under a hood. Wells were then washed three times with PBS, and 50 μL/well of Doxy-5 (40 μg/ml) were added. The plate was then incubated at 37° C. for 30 minutes, protected from light. Afterwards, the wells were washed again with PBST, and 50 μL/well of 1M TRIS was added as a glutaraldehyde-inactivating agent. The microplate was then incubated at 37° C. for 30 minutes. […] To stop the reaction, 25 μL/well of 2N H2SO4 were added, and the microplate was immediately read on a microplate reader (Tecan Spark, Austria) at the wavelength of 450 nm.

A further assay concerns the target T3, AS PFF (Homo sapiens, UniProt P37840).
T3 construct: made in house; host or cells: E. coli BL21
Nature of the assay: Comparative binding of immobilized doxycycline hyclate and Doxy-5 to AS aggregates. The following applies: AS aggregates 20 ng/ml; polystyrene microplates; FIG. 8. On the procedure:
as §1, with “h. The plate is then rinsed again, and 50 μL of the anti-AS antibody diluted to 1 μg/ml in 10% bovine fetal serum (BFS in 10 mM PBS pH 7.4) were added to each well, after which the plate was incubated 1.5 h. The plate was rinsed once more and incubated at 37° C. during 1 h with 50 μL/well of the antibody conjugated with peroxidase diluted to 1 μg/ml in 10% bovine fetal serum.” for “h.”
Both doxycycline hyclate and Doxy-5 were immobilized on polystyrene microplates and contacted with AS aggregates (PPF) according to the protocol described in Example 4, using a concentration for the AS aggregates of 20 ng/ml. The binding of the AS aggregates to each molecule was determined as described in Example 4 as well.

For the next assay, the system named is amyloid aggregates. The following applies: González-Lizárraga (2017), Medina (2021); cited from earlier work.

As for `C[C@H]1c2ccc(N)c(O)c2C(=O)C2=C(O)[C@]3(O)C(=O)C(C(N)=O)=C(O)CC3[C@@H](O)C21` (stereo partly shown) [Doxy-5, 9-amino-4-dedimethylamino doxycycline], the “electrochemical response of the sensor in the presence of the AS fibers (oxidation peak of voltammogram)” value on AS fibers (CV, -0.6 V to 0.6 V, 30 mV/seg, Doxy-5 on MPA-SAM gold electrode) is given as “clear electrochemical response”. In addition, the “interference of the AS monomer in CV response” value at AS fibers (monomer up to 100 ng/ml, response lower than fibers at 0.1 ng/mL) is “non-existing interference of the monomer”. Moreover, at fibrillar AS (native AS as negative control), the “cross-reaction with native (monomeric) AS” value was “no cross-reaction”. Moreover, the “AS concentrations showing the best differential reactivity between aggregated and monomeric species” value on fibrillar AS (wells sensitized with Doxy-5) is given as “over 30 ng/mL”. The “affinity towards fibrillar AS” value on fibrillar AS (wells sensitized with Doxy-5, absorbance 450 nm) is listed as “nanomolar affinity”. Also, the “discrimination between Tau monomer (Taum) and pre-formed fibrils (PFF), signal at 450 nm” value in the assay with Tau aggregates (PFF) is “higher signal for PFF compared with Taum and PBS”. Besides, the “signal for binding to AS PFF” value on AS PFF is reported as “significantly higher”.
Turning to `Nc1c(/N=N/c2ccc(-c3ccc(/N=N/c4cc(S(=O)(=O)O)c5ccccc5c4N)cc3)cc2)cc(S(=O)(=O)O)c2ccccc12` [Congo red], the “binding to amyloid aggregates structures” value with amyloid aggregates was “strong and specific binding”.
Regarding `Cc1ccc2c(c1)sc(-c1ccc(N(C)C)cc1)[n+]2C.[Cl-]` [Thioflavin T], the “binding to amyloid aggregates structures” value in the assay on amyloid aggregates was “strong and specific binding”.
Consider “doxycycline hyclate [reference compound]”, for which the “signal for binding to AS PFF” value on AS PFF is “positive signal”.

These data come from patent US20250305982A1, “DEVICE AND METHOD FOR THE DETECTION OF BIOMARKERS ASSOCIATED WITH NEURODEGENERATIVE DISEASES” (CONSEJO NACIONAL DE INVESTIGACIONES CIENTÍFICAS Y TÉCNICAS …, priority 2022, published 2025).
